Data from patent US8716480B2, “7-aryl-1,2,4-triazolo[4,3-a]pyridine derivatives and their use as positive allosteric modulators of mGluR2 receptors” (Janssen Pharmaceuticals, Inc., priority 2009, dated 2014).
Like-named read-outs stand apart in the source and are kept apart here.

Legend:
human mGluR2 receptor = biological target: T1, human mGluR2 receptor (Homo sapiens, UniProt Q14416); assay: [35S]GTPγS binding assay (PAM); assay type: biochemical; details: in presence of glutamate at predetermined EC20; membranes from CHO cells transfected with human mGluR2; read-out: GTPγS -hR2 PAM pEC50 (converted)
T1 construct: expressed in transfected cells; host or cells: CHO cells (membranes)
T1 sequence (Q14416 19-872): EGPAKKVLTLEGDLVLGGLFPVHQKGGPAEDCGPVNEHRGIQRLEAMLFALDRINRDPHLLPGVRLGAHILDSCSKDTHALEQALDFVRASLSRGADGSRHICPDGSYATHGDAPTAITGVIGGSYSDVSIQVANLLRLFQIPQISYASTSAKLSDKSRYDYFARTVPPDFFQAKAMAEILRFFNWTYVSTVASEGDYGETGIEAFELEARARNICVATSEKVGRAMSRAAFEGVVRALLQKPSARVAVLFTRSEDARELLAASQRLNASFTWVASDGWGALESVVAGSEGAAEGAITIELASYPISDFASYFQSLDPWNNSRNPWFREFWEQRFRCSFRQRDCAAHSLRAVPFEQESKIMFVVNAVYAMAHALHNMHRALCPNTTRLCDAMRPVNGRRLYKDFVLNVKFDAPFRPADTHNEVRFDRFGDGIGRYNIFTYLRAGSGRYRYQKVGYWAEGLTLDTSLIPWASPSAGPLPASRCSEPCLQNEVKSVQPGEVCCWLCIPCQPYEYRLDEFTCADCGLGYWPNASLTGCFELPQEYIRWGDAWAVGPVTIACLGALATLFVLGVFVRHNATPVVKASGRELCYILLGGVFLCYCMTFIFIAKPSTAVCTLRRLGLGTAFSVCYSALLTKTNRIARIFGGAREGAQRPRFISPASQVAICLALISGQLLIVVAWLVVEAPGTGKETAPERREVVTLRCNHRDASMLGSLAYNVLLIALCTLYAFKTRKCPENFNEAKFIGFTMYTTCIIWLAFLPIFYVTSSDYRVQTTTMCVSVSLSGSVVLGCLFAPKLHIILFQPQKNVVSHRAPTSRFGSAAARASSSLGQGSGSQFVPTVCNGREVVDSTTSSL
Description: [^35S]GTPγS binding assay
The [^35S]GTPγS binding assay is a functional membrane-based assay used to study G-protein coupled receptor (GPCR) function whereby incorporation of a non-hydrolysable form of GTP, [^35S]GTPγS (guanosine 5′-triphosphate, labelled with […] ^35S), is measured.
CHO-cells were cultured to pre-confluence and stimulated with 5 mM butyrate for 24 h, prior to washing in PBS, and then collected by scraping in homogenisation buffer (50 mM Tris-HCl buffer, pH 7.4, 4° C.). Cell lysates were homogenized briefly using an ultra-turrax homogenizer. The homogenate was centrifuged at 16,000 RPM (Sorvall RC-5C plus rotor SS-34) for 10 minutes and the supernatant discarded. The pellet was resuspended in 5 mM Tris-HCl, pH 7.4 and centrifuged again (18,000 RPM, 20 min, 4° C.). The final pellet was resuspended in 50 mM Tris-HCl, pH 7.4 and stored at −80° C. in appropriate aliquots before use. Protein concentration was determined by the Bradford method (Bio-Rad, USA) with bovine serum albumin as standard.
Measurement of mGluR2 positive allosteric modulatory activity of test compounds was performed as follows. Test compounds and glutamate were diluted in assay buffer containing 10 mM HEPES acid, 10 mM HEPES salt, pH 7.4, 100 mM NaCl, 3 mM MgCl2 and 10 μM GDP. Human mGlu2 receptor-containing membranes were thawed on ice and diluted in assay buffer supplemented with 14 μg/ml saponin. Membranes were pre-incubated with compound alone or together with a predefined (˜EC20) concentration of glutamate (PAM assay) for 30 min at 30° C. After addition of [^35S]GTPγS (f.c. 0.1 nM) microplates were shaken briefly and further incubated to allow [^35S]GTPγS incorporation on activation (30 minutes, 30° C.). Final assay mixtures contained 7 μg of membrane protein in 10 mM HEPES acid, 10 mM HEPES salt, pH 7.4, 100 mM NaCl, 3 mM MgCl2, 10 μM GDP and 10 μg/ml saponin. Total reaction volume was […] Reactions were terminated by rapid filtration through Unifilter-96 GF/B filter plates (Packard, Meriden, Conn.) using a 96-well Packard filtermate harvester. Filters were washed 6 times with ice-cold 10 mM NaH2PO4/10 mM Na2HPO4, pH 7.4. Filters were then air-dried, and 40 μl of liquid scintillation cocktail (Microscint-O) was added to each well. Membrane-bound radioactivity was counted in a Microplate Scintillation and Luminescence Counter from Packard.
obtained in the presence of EC20 of mGluR2 agonist glutamate to determine positive allosteric modulation (PAM)—were generated using the Lexis software interface (developed at J&J). Data were calculated as % of the control glutamate response, defined as the maximal response that is generated upon addition of glutamate alone. Sigmoid concentration-response curves plotting these percentages versus the log concentration of the test compound were analyzed using non-linear regression analysis. The concentration producing half-maximal effect is then calculated as EC50.
All compounds were tested in presence of mGluR2 agonist, glutamate at a predetermined EC20 concentration, to determine positive allosteric modulation (GTPγS-PAM). pEC50 values were calculated from a concentration-response experiment of at least 10 concentrations.

male NMRI mice [1] = assay: Phencyclidine (PCP)-induced hyperlocomotion in mice; assay type: in vivo; details: Mus musculus; mice; PCP 5 mg/kg s.c.; criterion total distance <5500 counts; not marked as oral; read-out: ED50 PCP-Inh.
Description: (§1) On the day of experiments, the mice were brought into the procedural room. They were housed individually and allowed to acclimate for at least a half hour prior to testing. Although the studies were conducted during the light cycle (from 8:00 to 16:00 h), the procedure room was only sparsely lit (3 to 30 LUX) to provide better contrast for the video tracking. Local lighting was used for the injection procedures. During each trial, an individual mouse was placed in an open field arena (grey PVC cylinder with a height of 40 cm and a diameter of 22.5 cm). Each arena was placed on an infrared LED (8×8 LEDs)-lit box (white PVC squared box; 40×40 cm^2; height 12.5 cm). Each mouse was placed in the center of the arena and allowed to explore freely for 30 min. After each trial, the arena was cleaned with a wet and subsequently with a dry cleaning cloth. An infrared sensitive tube camera and a white light source (in arena: 4-7 LUX) were mounted to the ceiling above the observation chamber to record and input activity to a computer. Animal behavior was recorded and analyzed using the Noldus Ethovision XT Video Tracking System (Version 3.1; Noldus, Wageningen, The Netherlands). The total distance traveled (cm) was calculated. Data were then exported to data management systems for further analysis and reporting.
Test compound or solvent was administered at a pre-defined time before measurement (standard: 30 min) to male NMRI mice that were challenged with phencyclidine (PCP; 5 mg/kg, s.c.) 30 min before measurement. Activity was measured for a period of 30 min.

male Wiga Wistar rats = assay: Conditioned avoidance response (CAR) test; assay type: in vivo; details: Rattus norvegicus, po, criterion median avoidance latency >8 s, read-out: ED50 CAR-Inh.
Text: The apparatus consisted of an inner box surrounded by an outer box. The inner box was composed of four walls of transparent, synthetic material (length×width×height: 30×30×30 cm), an open top, and a grid floor made of 15 pairs of iron bars (2 mm diameter; 6 mm inter-bar distance). Odd and even bars were connected with a source of alternative current (1.0 mA; Coulbourn Instruments Solid State Shocker/Distributor), which could be interrupted by a switch. The outer box was composed of the same material (length×width×height: 40×40×36 cm), also with an open top, with a distance of 5 cm between the inner and outer box on all sides. To decrease the amount of environmental stimuli, three walls of the outer box were made non-transparent. The front wall was left transparent to allow the necessary inspection of the animal during the test. The upper edge of the outer and inner box served as a target for the rats on which to jump with fore- and hind-paws, respectively.
From their arrival in the laboratory on the experimental day, male Wiga Wistar rats (230±30 g) were housed in individual cages provided with bedding material.
Latency to avoidance was recorded. The median avoidance response obtained over the three experimental sessions for each rat were used for further calculations.

Male mice (C57BL/6) = assay: Reversal of memantine-induced brain activation ([14C]2DG uptake) in mice; assay type: in vivo; details: for L.A.D. (lowest active dose) for significant (p<0.05) reduction of 2DG uptake in the hippocampus compared to memantine response: mice, s.c., memantine 20 mg/kg s.c.
Description: Reversal of Memantine-Induced Brain Activation in Mice NMDA receptor hypofunction is hypothesized to be involved in schizophrenia.
Autoradiographic assessment of radiolabeled [^14C]-2-deoxyglucose ([^14C]2DG) uptake is commonly used to investigate brain activation. In humans, cerebral blood flow is increased in specific brain regions after administration of a subanaesthetic dose of ketamine.
Male mice (C57BL/6, weight 24-28 g, fasted overnight; n=10 animals per group) were treated with vehicle or test compound (s.c.) in randomized order (t=0 min). Memantine (20 mg/kg, s.c.) was injected 30 min later (t=30 min). At t=45 min, [^14C]2DG (0.16 μCi/g) was administered intraperitoneally (i.p.), followed by a 45 min uptake period. Animals were decapitated (t=90 min), plasma glucose levels measured, the brain removed, rapidly frozen and stored at −20° C. until sectioned. Brain sections were exposed together to a precalibrated [^14C]standard on film, which was developed after four days of exposure. Local tissue [^14C]concentration (nCi/mg tissue equivalent—TEQ-) in each region of interest was determined.
Data was analyzed statistically using a two-way ANOVA analysis followed by post-hoc tests (memantine response versus reversal by the compound). The results are shown in table 5 below, expressed as lowest active dose (L.A.D.) required to exert a statistically significant (p<0.05) reduction of 2DG uptake in the hippocampus compared to memantine response.

male NMRI mice [2] = assay: d-Amphetamine-induced hyperlocomotion in mice; assay type: in vivo; details: Mus musculus, d-amphetamine 5 mg/kg s.c., compound administered orally, read-out: ED50 Amp.-Inh.
Description: as §1, with “An infrared sensitive tube camera and a white light source (in arena: 4-7 LUX) were mounted to the ceiling above the observation chamber to record and input activity to a computer.” left out, “Data were then exported to data management systems for further analysis and reporting.” left out
Test compound or solvent was administered at a pre-defined time before measurement (standard: 30 min) to male NMRI mice that were challenged with d-amphetamine (5 mg/kg, s.c.) 30 min before measurement. Activity was measured for a period of 30 min.

rats = assay: Sleep wake electroencephalography (SW-EEG) in rats; assay type: in vivo; details: 3 mg/kg, p.o.
Text: Sleep Wake Electroencephalography (SW-EEG) in Rats SW-EEG analyses are a highly sensitive read-out of a compound's central functional activity that may provide additional insight in the potential therapeutic application (i.e. via drug classification fingerprinting). […] Internal efforts have confirmed that this effect is mGlu2 receptor-mediated, i.e. is absent in mGlu2 KO mice. Sleep abnormalities are often associated with CNS disorders; as such, the potential use of mGlu2 modulators could also have benefit in the treatment of CNS disorders in which (REM) sleep aberrations are manifested. More specifically, the combination of a persistent reduction in REM occurrence and an increase in REM latency is one of the key features of the typical SW architecture fingerprint of most clinically active antidepressants.
We investigated the effects of oral administration of compounds according to the invention on SW organization in rats. The mGlu2/3 receptor agonist LY404039 was also evaluated to allow comparison.

| EC50 (human mGluR2 receptor) | melting point | SMILES | ED50 (male NMRI mice [1]) | ED50 (male Wiga Wistar rats; compound administered orally) | ED50 (male Wiga Wistar rats; not marked as oral) | L.A.D. (lowest active dose) for significant (p<0.05) reduction of 2DG uptake in the hippocampus compared to memantine response (Male mice (C57BL/6)) | ED50 (male NMRI mice [2]) | effect on memantine-induced brain glucose metabolism / 2DG uptake (in words) (Male mice (C57BL/6); mouse brain) | effect on REM sleep (in words) (rats) |
| --- | --- | --- | --- | --- | --- | --- | --- | --- | --- |
| 209 nM | 130.1 °C | Cc1cc(Oc2ccc(-c3ccn4c(CC(F)(F)F)nnc4c3Cl)cc2F)ccn1 [Co. No. 1, 7-[3-Fluoro-4-(2′-methyl-pyridin-4-yloxy)-phenyl]-8-chloro-3-(2,2,2-trifluoro-ethyl)-1,2,4-triazolo[4,3-a]pyridine] | 18.7 mg/kg | 21.4 mg/kg | 12.3 mg/kg | >10 mg/kg |  |  |  |
| 50.1 nM |  | Cc1cc(Oc2ccc(-c3ccn4c(CC5CC5)nnc4c3C(F)(F)F)cc2F)ccn1 [Co. No. 2, 7-[3-Fluoro-4-(2′-methyl-pyridin-4-yloxy)-phenyl]-8-trifluoromethyl-3-cyclopropylmethyl-1,2,4-triazolo[4,3-a]pyridine] | 12.3 mg/kg | 21.4 mg/kg | 18.7 mg/kg | 10 mg/kg | 28.3 mg/kg |  |  |
|  |  | N[C@@]1(C(=O)O)CS(=O)(=O)[C@H]2[C@H](C(=O)O)[C@H]21 [LY404039, reference compound] |  |  |  |  |  | inhibited | affect REM sleep |
